For one series, the system named is AA8 cell line. Put plainly: Cytotoxicity on AA8 cell line (2 hours exposure, AlamarBlue). In kind it is cell-based, Chinese hamster. The settings on record: Cricetulus griseus, CHO-AA8; AA8, 2 hours exposure, then 70 hours, normoxic.
A further series concerns the target T1, CYP450R enzyme (Homo sapiens, UniProt P16435).
T1 sequence (P16435 1-677): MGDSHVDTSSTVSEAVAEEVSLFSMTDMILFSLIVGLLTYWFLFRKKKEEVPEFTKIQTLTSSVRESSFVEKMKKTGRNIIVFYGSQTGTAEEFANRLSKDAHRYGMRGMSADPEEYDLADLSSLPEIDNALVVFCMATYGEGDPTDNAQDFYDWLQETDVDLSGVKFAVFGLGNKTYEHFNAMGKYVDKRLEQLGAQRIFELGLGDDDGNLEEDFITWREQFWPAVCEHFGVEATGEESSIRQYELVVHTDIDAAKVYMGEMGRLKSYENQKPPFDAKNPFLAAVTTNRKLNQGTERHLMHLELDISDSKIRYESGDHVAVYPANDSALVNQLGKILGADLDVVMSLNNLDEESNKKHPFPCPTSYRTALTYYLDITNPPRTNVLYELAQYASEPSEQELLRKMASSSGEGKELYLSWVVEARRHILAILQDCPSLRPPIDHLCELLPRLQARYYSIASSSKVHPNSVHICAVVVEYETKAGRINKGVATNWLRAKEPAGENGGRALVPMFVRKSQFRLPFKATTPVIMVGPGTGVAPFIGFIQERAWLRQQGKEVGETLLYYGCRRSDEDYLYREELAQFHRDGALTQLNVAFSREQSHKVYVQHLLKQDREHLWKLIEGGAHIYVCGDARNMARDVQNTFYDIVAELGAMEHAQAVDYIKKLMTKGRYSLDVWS
Put plainly: Hypoxia-dependent reduction experiment with NADPH and CYP450R. The settings on record: in the presence of NADPH and CYP450R enzymes. It is filed as biochemical. The procedure: Ingredients were added to each tube without NADPH. Next, 50 μL of the condition B samples were transferred into 100 μL of acetonitrile (T=0). For the samples to be tested under hypoxia condition, the tubes were placed in a hypoxia chamber (BACTRON anaerobic/environmental chamber). The reactions were initiated by adding NADPH to tube A and tube C. Then, the samples with NADPH were placed at 37° C. For the samples to be tested in air condition, the tubes were placed in a hot plate at 37° C. After 30 minutes and 2 hours of incubation, 50 μL of samples were taken from each tube and mixed with 100 μL of acetonitrile. All tubes were spun to remove any protein precipitate and placed in HPLC vials for analysis. The results were compared with the standard curve of the authentic standard. The specific composition of the reagents in each sample reaction tube was shown as follow.
The drugs relative to the initial amount of the test drug (TH-302, compound 01) of the 3 different sample reaction tubes of A/B/C that have been reacted for different times (0/30 min/120 min). The results of adding different concentrations of human NADPH coenzyme were shown in FIG. 3 and FIG. 4, respectively.

The nature of series [1]: Hepatomicrosome stability, human. The settings on record: for Remaining percentage after 30 minutes: Human, 2 μM. How it is done:
1a) With NADPH: 10 μL of 20 mg/mL of hepatomicrosome and 40 μL of 10 mM of NADPH were added to medium. The final concentrations of hepatomicrosome and NADPH were 0.5 mg/mL and 1 mM, respectively.
1b) Without NADPH: 10 μL of 20 mg/mL hepatomicrosome and 40 μL of ultra-pure H2O were added to medium. The final concentration of hepatomicrosome was 0.5 mg/mL.
3) 3) Aliquots of 50 μL from the reaction solutions at 0 minute and 30 minutes were taken. The reaction solutions were stopped by adding 4 volumes of cold acetonitrile and 4 internal standards (IS internal standard, 100 nM of Alprazolam, 200 nM of caffeine, 200 nM of Labetalol, and 2 μM of Ketoprofen) to stop the reaction solution. The samples were centrifuged at 3,220 g for 40 minutes. Aliquots of 100 μL of the supernatants were mixed with 100 μL of ultra-pure H2O. Then, the mixtures were used for LC-MS/MS analysis. All experiments were performed in duplicate. The test results were as follow.

A further series can be described thus: Plasma stability, mouse. It is filed as in vitro ADME. The procedure:
Frozen plasma was melted immediately in a water bath at 37° C. […] The supernatants were collected into new tubes, respectively. pH values of the plasma were checked and recorded. Note: a, no more 2 times melted plasma was used since the sample was received; b, the plasma in pH 7 to pH 8 was used.
1 mM of working solution of the test compounds and the control compound, propantheline, were prepared in DMSO. 1 mM of working solution of the control compound in […] was prepared in acetonitrile. 4 μL of the working solutions were added to 796 μL of pre-incubated plasma respectively to achieve a final concentration of 5 μM. The final concentration of solvent was 0.5%.
[…] The test was performed in duplicate. […] 50 μL of the labeled plasma was added to new tubes containing 300 μL of the quench solution of room temperature, i.e., the sample with a preparation time of 0. The samples were vortexed to mix for 5 minutes. […] 100 μL of the supernatant was transferred to new plates.

Series [2] concerns GA6201 tumor of HuPrime® model. Put plainly: PDX model, subcutaneously transplanted human gastric cancer. It is filed as in vivo, BALB/c nude mice. The settings on record: for Tumor volume: ifosfamide 60 mg/kg i.p., compound 01 5-50 mg/kg. How it is done: BALB/c nude mice were subcutaneously inoculated with GA6201 tumor of HuPrime® model to establish a subcutaneously transplanted tumor model of human gastric cancer. The experiment was divided into a vehicle control group 1 with normal saline (pH 7.0-7.6), a control group 2 with ifosfamide (60 mg/kg), and an Experimental group (Exp. group) with compound 01 (5-50 mg/kg), and 5 mice per group.
The Exp. group with compound 01 (5-50 mg/kg) was administered by intraperitoneal injection for 5 consecutive days and stopped for 2 days a week, and administered for 2 weeks. Then, the dose was changed to 10 mg/kg by intraperitoneal injection, administered daily for 4 days. After that, the dose and administration method were changed. The dose was 20 mg/kg by tail vein injection for 1 day. After 10 days of drug withdrawal, the dose was changed again. The dose was 50 mg/kg by tail vein injection, once a week, for 2 weeks, and one week of observation. […] The safety was evaluated according to the changes in animal body weight and death.
The tumor volume of each group of mice was measured on different days, and the average value was obtained.

The values below come from patent US20230026163A1, “ANTICANCER COMPOUND AND MEDICAL USE THEREOF” (ASCENTAWITS PHARMACEUTICALS, LTD., priority 2019, published 2023).

With `O=[N+]([O-])c1ccc(C(OP(=O)(N2CC2)N2CC2)C(F)(F)F)c2ccccc12` (stereo not drawn) [Compound 01], the IC50 (usually the concentration that gives 50% inhibition) in the series on AA8 cell line came out at 10.8 µM. The “Reduction ratio compared with TH-302” value at CYP450R enzyme is on record as “similar”. The Hypoxia-dependent reduction result at CYP450R enzyme (37° C.) was “showed the hypoxia-dependent reduction reaction”. For the same compound, the “Remaining percentage after 30 minutes” value in series [1] (with NADPH) came to 96.39%; in series [1] (without NADPH) it was 82.15%. Further, in series [1] (human), the “Stability in hepatomicrosomes (conclusion)” value was “relatively stable”. In addition, the Remaining percentage in the series “Plasma stability, mouse” (Mouse plasma, 5 μM, 37° C., after 30 minutes) is on record as 55.07%. In addition, in the series “Plasma stability, mouse” (mouse), the “Stability in plasma (conclusion)” value is recorded as “relatively unstable”. The “Inhibition of tumor growth compared with ifosfamide (conclusion)” value in series [2] (GA6201 PDX) is listed as “obvious advantages in inhibiting tumor growth”. Moreover, the Tumor volume in series [2] (day 0) amounted to 94.24 mm^3; in series [2] (day 3) it was 121.79 mm^3; in series [2] (day 7), 123.19 mm^3; in series [2] (day 10), 153.46 mm^3; in series [2] (day 14) it was 191.17 mm^3; in series [2] (day 17) it was 219.91 mm^3. The Tumor volume in series [2] (day 21) amounted to 246.57 mm^3; in series [2] (day 24) it was 271.72 mm^3; in series [2] (day 28), 280.86 mm^3; in series [2] (day 31), 270.68 mm^3; in series [2] (day 35), 299.31 mm^3; in series [2] (day 38), 277.17 mm^3. Besides, the figures for the Tumor volume in series [2] (day 42), in series [2] (day 45) and in series [2] (day 49) were 300.46 mm^3, 342.08 mm^3 and 287.47 mm^3, respectively.
